Results from patent US20200071667A1, “COMPOSITION COMPRISING GLYCYRRHIZIN FOR INDUCING DIFFERENTIATION INTO MYELOID-DERIVED SUPPRESSOR CELL FROM MYELOID CELL” (Konkuk University Glocal Industry-Academic Collabo, priority 2018, published 2020).

How the values were obtained:
[1] = tested on: myeloid cells having a phenotype of CD31+; experiment: Myeloid cell proliferation after glycyrrhizin treatment without LPS stimulation; format: cell-based, mouse; details: 100, 200 or 300 μg/ml; cultured 48 hours; without stimulation by LPS
Procedure: It was examined whether myeloid cells are capable of proliferating even when treated with glycyrrhizin alone without stimulation of the myeloid cells with LPS.
Specifically, myeloid cells having a phenotype of CD31+ were isolated from mouse myeloid cells obtained in the same manner as in Example 2-2. The myeloid cells were treated with glycyrrhizin at a concentration of 100 μg/ml, 200 μg/ml, or 300 μg/ml, and then cultured for 48 hours. As a control, the myeloid cells were treated with 0.1 ml of PBS. Subsequently, the expression level of myeloid cells was examined by the same flow cytometric analysis as that used in Example <2-1>.

mouse myeloid cells = experiment: Differentiation into CD11b+Gr1 myeloid cells by glycyrrhizin concentration and culture time, flow cytometric analysis; format: cell-based; details: for expression level of CD11b+Gr1 myeloid cells: 300 μg/ml
Procedure: Flow cytometric analysis was performed to determine whether the concentration of glycyrrhizin with which myeloid cells were treated or culture time affects differentiation into CD11b+Gr1 myeloid cells from myeloid cells.
Specifically, mouse myeloid cells were obtained in the same manner as in Example <2-2>, treated with glycyrrhizin at a concentration of 100 μg/ml, 200 μg/ml, or 300 μg/ml, and then cultured for 24 hours or 48 hours. As a control, the myeloid cells were treated with 0.1 ml of PBS. Subsequently, the expression level of the myeloid cells was examined by the same flow cytometric analysis as that used in Example <2-1>.

iNOS = iNOS measurement by RT-PCR in glycyrrhizin-treated myeloid cells; format: cell-based, mouse; details: 100, 200 or 300 μg/ml, cultured 48 hours, vs negative control
Procedure: Specifically, myeloid cells were isolated from mice of the control of Example 1, treated with glycyrrhizin at a concentration of 100 μg/ml, 200 μg/ml, or 300 μg/ml, and then cultured for 48 hours. Thereafter, RT-PCR was performed. As a negative control, the myeloid cells were treated with 0.1 ml of PBS, and GAPDH was used as an expression control.

T cells = experiment: T cell activity measurement by CFSE analysis with glycyrrhizin-induced CD11b+Gr1 myeloid cells as stimulator cells; format: cell-based, mouse; details: stimulator cells from 300 μg/ml glycyrrhizin, 48 hours; responder:stimulator 1:1, 1:2, 1:4; 3 days
Procedure: Specifically, mouse myeloid cells were obtained in the same manner as in Example <2-2>, treated with 300 μg/ml of glycyrrhizin, and then cultured for 48 hours. Subsequently, CD11b+Gr1 myeloid cells induced to be differentiated were stained and separated with FACSAria to be used as stimulator cells, and for responder cells, T cells were isolated with FACSAria from splenocytes of mice of the control of Example 1 and stained with CFSE. The responder cells and the stimulator cells were treated with CD3 and CD28, which induce the activity of T cells, at a ratio of 1:1, 1:2, or 1:4 and further cultured for 3 days.

CC1(C)[C@@H](O[C@H]2O[C@H](C(=O)O)[C@@H](O)[C@H](O)[C@H]2O[C@@H]2O[C@H](C(=O)O)[C@@H](O)[C@H](O)[C@H]2O)CC[C@]2(C)[C@H]3C(=O)C=C4[C@@H]5C[C@@](C)(C(=O)O)CC[C@]5(C)CC[C@@]4(C)[C@]3(C)CC[C@@H]12 [glycyrrhizin, ammonium glycyrrhizinate]
proliferation of the myeloid cells [1]: increased in a manner dependent upon the concentration of glycyrrhizin | expression level of CD11b+Gr1 myeloid cells (mouse myeloid cells; cultured 24 hours (control 9.10%)): 29.5% | expression level of CD11b+Gr1 myeloid cells (mouse myeloid cells; cultured 48 hours (control 10.8%)): 53.1% | expression level of CD11b+Gr1 myeloid cells, concentration dependence (mouse myeloid cells; 100, 200 or 300 μg/ml, cultured 24 hours): increased in a concentration-dependent manner | expression level of iNOS (iNOS): increased in a concentration-dependent manner | activity of T cells (T cells): the higher the proportion of the stimulator cells (CD11b+Gr1 myeloid cells), the lower the activity of T cells
